From patent publication US7101872B2, “Farnesyl dibenzodiazepinone, and processes for its production” (Ecopia BioSciences, Inc., priority 2003, dated 2006)

Assays:
Test in all cases: NCI panel SRB growth inhibition
Format in all cases: cell-based
786-0 = settings: Homo sapiens, 786-0, Renal, 48 h
Procedure: (§1) The operation of this unique screen utilizes […] different human tumor cell lines, representing leukemia, melanoma and cancers of the lung, colon, brain, ovary, breast, prostate, and kidney.
(§2) Culture conditions and plating: The human tumor cell lines of the cancer-screening panel were grown in RPMI 1640 medium containing 5% fetal bovine serum and 2 mM L-glutamine. For a typical screening experiment, cells were inoculated into 96 well microtiter plates in 100 μL at plating densities ranging from 5,000 to 40,000 cells/well depending on the doubling time of individual cell lines (Table 5). After cell inoculation, the microtiter plates were incubated at 37° C., 5% CO2, 95% air and 100% relative humidity for 24 h prior to addition of experimental drugs. After 24 h, two plates of each cell line were fixed in situ with TCA, to represent a measurement of the cell population for each cell line at the time of drug addition (Tz). Evaluation of inhibitory activity on cell proliferation: ECO-04601 was provided as a lyophilized powder with an estimated purity of 90+%. The compound was stored at −20° C. until day of use. ECO-04601 was solubilized in dimethyl sulfoxide at 400-fold the desired final maximum test concentration. At the time of drug addition, an aliquot of frozen concentrate was thawed and diluted to twice the desired final maximum test concentration with complete medium containing 50 μg/mL gentamicin. Additional four, 10-fold or Y2 log serial dilutions were made to provide a total of five drug concentrations plus control. Aliquots of 100 μl of these different drug dilutions were added to the appropriate microtiter wells already containing 100 μl of medium, resulting in the required final drug concentrations (8.0×10^−5 M to 8.0×10^−9 M).
(§3) Following drug addition, the plates were incubated for an additional 48 h at 37° C., 5% CO2, 95% air, and 100% relative humidity. For adherent cells, the assay was terminated by the addition of cold TCA. Cells were fixed in situ by the gentle addition of 50 μl of cold 50% (w/v) TCA (final concentration, 10% TCA) and incubated for 60 minutes at 4° C. Supernatants were discarded, and the plates were washed five times with tap water and air-dried. Sulforhodamine B (SRB) solution (100 μl) at 0.4% (w/v) in 1% acetic acid was added to each well, and plates were incubated for 10 minutes at room temperature. After staining, unbound dye was removed by washing five times with 1% acetic acid and the plates were air-dried. Bound stain was subsequently solubilized with 10 mM trizma base, and the absorbance was read on an automated plate reader at a wavelength of 515 nm. For suspension cells, the methodology was the same except that the assay was terminated by fixing settled cells at the bottom of the wells by gently adding 50 μl of 80% TCA (final concentration, 16% TCA).
(§4) The growth inhibitory activity of ECO-04601 was measured by NCI utilizing the GI50 value, rather than the classical IC50 value.

ACHN = settings: Homo sapiens, Renal, 48 h
Procedure: as §1, §2, §3, §4

CAKI-1 = settings: Homo sapiens, CAKI-1, Renal, 48 h
Procedure: as §1, §2, §3, §4

CCRF-CEM = settings: Homo sapiens, Leukemia, 48 h
Procedure: as §1, §2, §3, §4

COLO 205 = settings: Homo sapiens, COLO 205, Colon, 48 h
Procedure: as §1, §2, §3, §4

HS 578T = settings: Homo sapiens, Breast, 48 h
Procedure: as §1, §2, §3, §4

HT29 = settings: Homo sapiens, HT-29, HT29, Colon, 48 h
Procedure: as §1, §2, §3, §4

IGR-OV1 = settings: Homo sapiens, IGROV-1, IGR-OV1, Ovarian, 48 h
Procedure: as §1, §2, §3, §4

K-562 = settings: Homo sapiens, K562, K-562, Leukemia, 48 h
Procedure: as §1, §2, §3, §4

M14 = settings: Homo sapiens, M14, Melanoma, 48 h
Procedure: as §1, §2, §3, §4

NCI-H23 = settings: Homo sapiens, NCI-H23, Non-Small Cell Lung, 48 h
Procedure: as §1, §2, §3, §4

NCI-H460 = settings: Homo sapiens, NCI-H460, Non-Small Cell Lung, 48 h
Procedure: as §1, §2, §3, §4

NCI-H522 = settings: Homo sapiens, NCI-H522, Non-Small Cell Lung, 48 h
Procedure: as §1, §2, §3, §4

NCI/ADR-RES = settings: Homo sapiens, Breast, 48 h
Procedure: as §1, §2, §3, §4

OVCAR-3 = settings: Homo sapiens, OVCAR-3, Ovarian, 48 h
Procedure: as §1, §2, §3, §4

OVCAR-4 = settings: Homo sapiens, OVCAR-4, Ovarian, 48 h
Procedure: as §1, §2, §3, §4

OVCAR-8 = settings: Homo sapiens, OVCAR-8, Ovarian, 48 h
Procedure: as §1, §2, §3, §4

RPMI-8226 = settings: Homo sapiens, RPMI-8226, Leukemia, 48 h
Procedure: as §1, §2, §3, §4

RXF 393 = settings: Homo sapiens, RXF 393, Renal, 48 h
Procedure: as §1, §2, §3, §4

SF-268 = settings: Homo sapiens, SF-268, CNS, 48 h
Procedure: as §1, §2, §3, §4

SF-539 = settings: Homo sapiens, SF-539, CNS, 48 h
Procedure: as §1, §2, §3, §4

SK-MEL-5 = settings: Homo sapiens, SK-MEL-5, Melanoma, 48 h
Procedure: as §1, §2, §3, §4

SN12C = settings: Homo sapiens, Renal, 48 h
Procedure: as §1, §2, §3, §4

U251 = settings: Homo sapiens, U-251, U251, CNS, 48 h
Procedure: as §1, §2, §3, §4

UACC-62 = settings: Homo sapiens, UACC-62, Melanoma, 48 h
Procedure: as §1, §2, §3, §4

UO-31 = settings: Homo sapiens, UO-31, Renal, 48 h
Procedure: as §1, §2, §3, §4

With `CC(C)=CCC/C(C)=C/CC/C(C)=C/CN1C(=O)c2cccc(O)c2Nc2c(O)cc(O)cc21` [ECO-04601, 10-farnesyl-4,6,8-trihydroxy-dibenzodiazepin-11-one] the GI50 (786-0) was 6.99 µM, the GI50 (ACHN) was 3.1 µM and the GI50 (CAKI-1) was 15.2 µM. The GI50 (CCRF-CEM) was 1080 nM, the GI50 (COLO 205) was 12.7 µM and the GI50 (HS 578T) was 2760 nM. The GI50 (HT29) was 20.7 µM, the GI50 (IGR-OV1) was 3.11 µM and the GI50 (K-562) was 1430 nM. For the same compound, the GI50 (M14) was 4.57 µM, the GI50 (NCI-H23) was 2020 nM and the GI50 (NCI-H460) was 13.6 µM. For the same compound, the GI50 (NCI-H522) was 3.44 µM, the GI50 (NCI/ADR-RES) was 18.3 µM and the GI50 (OVCAR-3) was 13.5 µM. For the same compound, the GI50 (OVCAR-4) was 9.67 µM, the GI50 (OVCAR-8) was 2650 nM and the GI50 (RPMI-8226) was 3.15 µM. The GI50 (RXF 393) was 7.71 µM, the GI50 (SF-268) was 4.94 µM and the GI50 (SF-539) was 7.5 nM. The GI50 (SK-MEL-5) was 7.8 µM, the GI50 (SN12C) was 3.85 µM and the GI50 (U251) was 2190 nM. It also gave a GI50 (UACC-62) of 1550 nM and a GI50 (UO-31) of 19.7 µM.
